According to paper PMC7895991, “Calculating metalation in cells reveals CobW acquires Co^II for vitamin B12 biosynthesis while related proteins prefer Zn^II” (Nature Communications, 2021):

What was measured:
CobW [1] = target: T1, CobW (Rhodobacter capsulatus, UniProt D5AV10); test: Co(II) titration UV-vis, nucleotide-induced metal site at […] nm; assay type: binding; details: 10 mM HEPES pH 7.0, 100 mM NaCl, 400 mM KCl, anaerobic, indirect read-out, no nucleotide constant
T1 construct: full length, untagged (natural His-rich region), initiator Met cleaved; E. coli BL21(DE3) pLysS; six cysteines
T1 sequence (D5AV10 2-348): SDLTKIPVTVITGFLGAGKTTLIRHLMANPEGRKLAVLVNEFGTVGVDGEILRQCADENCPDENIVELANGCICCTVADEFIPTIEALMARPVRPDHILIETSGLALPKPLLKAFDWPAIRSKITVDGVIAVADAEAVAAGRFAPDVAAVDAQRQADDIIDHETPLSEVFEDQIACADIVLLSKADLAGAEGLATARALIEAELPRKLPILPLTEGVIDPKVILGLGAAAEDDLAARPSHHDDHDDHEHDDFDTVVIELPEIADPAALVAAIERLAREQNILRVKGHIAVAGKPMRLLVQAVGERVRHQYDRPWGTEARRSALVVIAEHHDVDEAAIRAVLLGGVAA

CobW [2] = target: T1, CobW; test: Co(II) titration UV-vis at […] nm and gel filtration/ICP-MS; assay type: binding; details: 10 mM HEPES pH 7.0, 100 mM NaCl, 400 mM KCl, anaerobic, with or without Mg(II) 2.7 mM, indirect read-out, no nucleotide constant
CobW [3] = target: T1, CobW; test: GTP hydrolysis by anion-exchange chromatography, […] nm; assay type: biochemical; details: 20 uM CobW, 200 uM GTP, 2.7 mM Mg(II), 18 uM Co(II), HEPES pH 7.0, anaerobic; slow turnover

## Nc1nc2c(ncn2[C@@H]2O[C@H](COP(=O)(O)OP(=O)(O)O)[C@@H](O)[C@H]2O)c(=O)[nH]1 [GDP]
CobW [1]; Mg(II) 2.7 mM
  Co(II) titration UV-vis, nucleotide-induced metal site at 339 nm: Mg^IIGDP-CobW, despite displaying identical absorbance features indicating the persistence of the cysteine-rich tetrahedral site

## Nc1nc2c(ncn2[C@@H]2O[C@H](COP(=O)(O)OP(=O)(O)NP(=O)(O)O)[C@@H](O)[C@H]2O)c(=O)[nH]1 [GMPPNP]
CobW [2]
  Co(II) titration UV-vis at 339 nm and gel filtration/ICP-MS: binding of guanine nucleotides to CobW promotes tight coordination of two metal ions

## Nc1nc2c(ncn2[C@@H]2O[C@H](COP(=O)(O)OP(=O)(O)OP(=O)(O)O)[C@@H](O)[C@H]2O)c(=O)[nH]1 [GTP]
CobW [1]; Mg(II) 2.7 mM
  Co(II) titration UV-vis, nucleotide-induced metal site at 339 nm: binding of Mg^II and guanine nucleotides preassembles one distinct Co^II site in CobW
CobW [3]
  GTP hydrolysis by anion-exchange chromatography, 254 nm: CobW-catalysed GTP hydrolysis is sufficiently slow such that nucleotides remain predominantly unhydrolysed

## Nc1nc2c(ncn2[C@@H]2O[C@H](COP(=O)(O)OP(=O)(O)OP(O)(O)=S)[C@@H](O)[C@H]2O)c(=O)[nH]1 [GTPγS]
CobW [1]; with or without Mg(II) 2.7 mM
  Co(II) titration UV-vis, nucleotide-induced metal site at 339 nm: Equivalent experiments performed with GTP and an alternate stable analogue, GTPγS, generated indistinguishable spectra
